pEC50: −log10 of the molar value.
Tests used:
ABCA1 protein = test: Detection of upregulation of ABCA1 protein in cells (ApoA-I binding, high content image analysis); format: cell-based; settings: THP-1 macrophage cells; for % increase of ABCA1 at 3 μM: 24 hrs with compound; for pEC50: ABCA1 protein increasing efficacy
Summary of the method: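 THP-1 cells differentiated with 100 nM PMA for 68 hrs, loaded with 25 μg/ml acetylated LDL for 24 hours, then exposed to compound (0.5% DMSO) for 24 hrs. Surface ABCA1 measured by binding of AlexaFluor 647-labeled human ApoA-I (20 nM, 2 h, 37 °C) with confocal high-content imaging; EC50 from one-site dose-response fit.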

human CB2 receptor = biological target: T1, human CB2 receptor (Homo sapiens, UniProt P34972); test: CB2 receptor affinity ([3H]-CP-55,940 displacement, HEK cell membranes); format: binding; settings: displacement of radioligand [3H]-CP-55,940
T1 construct: expressed in transfected cells; host or cells: human embryonic kidney (HEK) cells, Semliki Forest Virus system, membrane preparations
T1 sequence (P34972 whole entry): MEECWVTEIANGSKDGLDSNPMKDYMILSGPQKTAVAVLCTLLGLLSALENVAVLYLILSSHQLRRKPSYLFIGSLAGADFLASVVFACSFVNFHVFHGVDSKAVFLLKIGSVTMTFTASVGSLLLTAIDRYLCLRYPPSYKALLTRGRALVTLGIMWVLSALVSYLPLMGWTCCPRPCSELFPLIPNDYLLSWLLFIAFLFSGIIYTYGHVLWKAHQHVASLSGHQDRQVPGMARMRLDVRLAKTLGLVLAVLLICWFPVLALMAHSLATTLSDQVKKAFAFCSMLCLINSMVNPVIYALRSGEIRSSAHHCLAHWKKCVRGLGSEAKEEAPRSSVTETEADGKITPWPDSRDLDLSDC
Summary of the method: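 Membranes from HEK cells transiently expressing human CB2 via Semliki Forest Virus, incubated with [3H]-CP-55,940 ± compound; bound ligand separated by glass-fiber filtration and counted by scintillation. Reported as % inhibition of radioligand binding at 10 μM compound.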

human CB1 receptor = biological target: T2, human CB1 receptor (Homo sapiens, UniProt P21554); test: CB1 receptor affinity ([3H]-CP-55,940 displacement, HEK cell membranes); format: binding; settings: displacement of radioligand [3H]-CP-55,940
T2 construct: expressed in transfected cells; host or cells: human embryonic kidney (HEK) cells, Semliki Forest Virus system, membrane preparations
T2 sequence (P21554 whole entry): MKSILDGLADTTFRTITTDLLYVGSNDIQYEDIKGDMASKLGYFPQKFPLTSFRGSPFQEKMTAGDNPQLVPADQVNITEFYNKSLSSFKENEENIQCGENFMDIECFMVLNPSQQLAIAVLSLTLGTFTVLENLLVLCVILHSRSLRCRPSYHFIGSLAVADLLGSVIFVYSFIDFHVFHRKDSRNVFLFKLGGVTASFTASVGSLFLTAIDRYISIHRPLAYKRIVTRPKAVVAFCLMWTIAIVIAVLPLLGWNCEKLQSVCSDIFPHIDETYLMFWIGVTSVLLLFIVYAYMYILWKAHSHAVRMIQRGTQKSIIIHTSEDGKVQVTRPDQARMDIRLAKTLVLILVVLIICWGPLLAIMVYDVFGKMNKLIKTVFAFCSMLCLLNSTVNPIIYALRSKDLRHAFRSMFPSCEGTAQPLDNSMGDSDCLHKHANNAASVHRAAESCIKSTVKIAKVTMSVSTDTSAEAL
Summary of the method: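 HEK cell membranes transiently expressing human CB1 (Semliki Forest Virus) incubated with [3H]-CP-55,940 and compound at 10 μM. Bound and free ligand separated by glass-fibre filtration, then scintillation counting. Reported as % inhibition of radioligand binding.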

| Structure (SMILES) | % increase of ABCA1 at 3 μM (ABCA1 protein) [% @ 3 μM] | inhibition at 10 µM (human CB2 receptor) [%] | inhibition at 10 µM (human CB1 receptor) [%] | pEC50 (ABCA1 protein) |
| --- | --- | --- | --- | --- |
| O=C(Nc1cnc(OCC(F)(F)F)c(-c2ccc(Cl)c(F)c2)c1)c1cncnc1 [Example 53, N-(5-(4-chloro-3-fluorophenyl)-6-(2,2,2-trifluoroethoxy)pyridin-3-yl)pyrimidine-5-carboxamide] | >45 | 0 | 21 | – |
| O=C(Nc1cnc(OCC(F)(F)F)c(-c2ccc(F)c(Cl)c2)c1)c1cncnc1 [Example 54, N-(5-(3-chloro-4-fluorophenyl)-6-(2,2,2-trifluoroethoxy)pyridin-3-yl)pyrimidine-5-carboxamide] | >45 | 10 | 21 | – |
| O=C(Nc1cnc(OCC(F)(F)F)c(-c2ccc(Cl)cc2F)c1)c1cncnc1 [Example 55, N-(5-(4-chloro-2-fluorophenyl)-6-(2,2,2-trifluoroethoxy)pyridin-3-yl)pyrimidine-5-carboxamide] | >45 | 4 | 35 | – |
| CCc1ccc(-c2cc(NC(=O)c3cncnc3)cnc2OCC(F)(F)F)cc1 [Example 56, N-(5-(4-ethylphenyl)-6-(2,2,2-trifluoroethoxy)pyridin-3-yl)pyrimidine-5-carboxamide] | >45 | 0 | 35 | – |
| Cc1cc(-c2cc(NC(=O)c3ccnc(O)c3)cnc2OCC(F)(F)F)ccc1Cl [Example 57, N-(5-(4-chloro-3-methylphenyl)-6-(2,2,2-trifluoroethoxy)pyridin-3-yl)-2-hydroxyisonicotinamide] | >45 | -18 | 0 | – |
| Cc1cc(-c2cc(NC(=O)c3cn(C)nc3C)cnc2OCC(F)(F)F)ccc1Cl [Example 58, N-(5-(4-chloro-3-methylphenyl)-6-(2,2,2-trifluoroethoxy)pyridin-3-yl)-1,3-dimethyl-1H-pyrazole-4-carboxamide] | – | -13 | 3 | 5.66 |
| Cc1cc(-c2cc(NC(=O)c3c(F)ccnc3F)cnc2OCC(F)(F)F)ccc1Cl [Example 59, N-(5-(4-chloro-3-methylphenyl)-6-(2,2,2-trifluoroethoxy)pyridin-3-yl)-2,4-difluoronicotinamide] | – | 18 | 22 | 5.41 |
| O=C(Nc1cnc(OCC(F)(F)F)c(-c2ccc(Cl)cc2)c1)c1ccccc1O [Example 60, N-(5-(4-chlorophenyl)-6-(2,2,2-trifluoroethoxy)pyridin-3-yl)-2-hydroxy-benzamide] | >45 | -2 | 38 | – |
| Cc1cc(-c2cc(NC(=O)c3cncc(C#N)c3)cnc2OCC(F)(F)F)ccc1Cl [Example 61, N-(5-(4-chloro-3-methylphenyl)-6-(2,2,2-trifluoroethoxy)pyridin-3-yl)-5-cyanonicotinamide] | >45 | 12 | 17 | – |
| Cc1cc(-c2cc(NC(=O)c3cccnn3)cnc2OCC(F)(F)F)ccc1Cl [Example 62, N-(5-(4-chloro-3-methylphenyl)-6-(2,2,2-trifluoroethoxy)pyridin-3-yl)pyridazine-3-carboxamide] | – | 4 | -4 | 5.62 |
| O=C(Nc1cnc(OCC(F)(F)F)c(-c2ccc(Cl)c(F)c2)c1)c1cccnn1 [Example 63, N-(5-(4-chloro-3-fluorophenyl)-6-(2,2,2-trifluoroethoxy)pyridin-3-yl)pyridazine-3-carboxamide] | – | -1 | 5 | 6.17 |
| O=C(Nc1cnc(OCC(F)(F)F)c(-c2ccc(Cl)cc2F)c1)c1cccnn1 [Example 64, N-(5-(4-chloro-2-fluorophenyl)-6-(2,2,2-trifluoroethoxy)pyridin-3-yl)pyridazine-3-carboxamide] | – | 2 | 9 | 5.97 |
| CCc1ccc(-c2cc(NC(=O)c3cccnn3)cnc2OCC(F)(F)F)cc1 [Example 65, N-(5-(4-ethylphenyl)-6-(2,2,2-trifluoroethoxy)pyridin-3-yl)pyridazine-3-carboxamide] | – | 5 | 19 | 6.57 |
| O=C(Nc1cnc(OCC(F)(F)F)c(-c2ccc(Cl)cc2)c1)c1ccco1 [Example 66, N-(5-(4-chlorophenyl)-6-(2,2,2-trifluoroethoxy)pyridin-3-yl)furan-2-carboxamide] | >45 | 5 | 30 | – |
| O=C(Nc1cnc(OCC(F)(F)F)c(-c2ccc(Cl)cc2)c1)c1ccoc1 [Example 67, N-(5-(4-chlorophenyl)-6-(2,2,2-trifluoroethoxy)pyridin-3-yl)furan-3-carboxamide] | >45 | 9 | 33 | – |
| Cc1ccc(C(=O)Nc2cnc(OCC(F)(F)F)c(-c3ccc(Cl)cc3)c2)o1 [Example 68, N-(5-(4-chlorophenyl)-6-(2,2,2-trifluoroethoxy)pyridin-3-yl)-5-methylfuran-2-carboxamide] | >45 | 4 | 26 | – |
| COCCOc1ncc(NC(=O)c2ccccc2)cc1-c1ccc(Cl)c(C)c1 [Example 69, N-(5-(4-chloro-3-methylphenyl)-6-(2-methoxyethoxy)pyridin-3-yl)benzamide] | >45 | 18 | 35 | – |
| CN1CCOc2cc(C(=O)Nc3cnc(OCC(F)(F)F)c(-c4ccc(Cl)cc4)c3)cnc21 [Example 72, N-(5-(4-chlorophenyl)-6-(2,2,2-trifluoroethoxy)pyridin-3-yl)-4-methyl-3,4-dihydro-2H-pyrido[3,2-b][1,4]oxazine-7-carboxamide] | – | -7 | 25 | 6.11 |
| Nc1ccc(-c2cc(NC(=O)c3cncc(I)c3)cnc2OCC(F)(F)F)cc1Cl [Example 73, N-(5-(4-amino-3-chlorophenyl)-6-(2,2,2-trifluoroethoxy)pyridin-3-yl)-5-iodonicotinamide] | >45 | 22 | 13 | – |
| O=C(Nc1cnc(OCC(F)(F)F)c(-c2ccccc2)c1)c1cccnc1 [Example 74, N-(5-phenyl-6-(2,2,2-trifluoroethoxy)pyridin-3-yl)nicotinamide] | >45 | -7 | 17 | – |
| O=C(Nc1cnc(OCC(F)(F)F)c(-c2ccc(F)cc2)c1)c1cccnc1 [Example 75, N-(5-(4-fluorophenyl)-6-(2,2,2-trifluoroethoxy)pyridin-3-yl)nicotinamide] | >45 | 5 | 31 | – |
| O=C(Nc1cnc(OCC(F)(F)F)c(-c2cccc(Cl)c2)c1)c1cccnc1 [Example 76, N-(5-(3-chlorophenyl)-6-(2,2,2-trifluoroethoxy)pyridin-3-yl)nicotinamide] | >45 | 5 | 1 | – |
| COc1cncc(C(=O)Nc2cnc(OCC(F)(F)F)c(-c3ccc(Cl)cc3)c2)c1 [Example 77, N-(5-(4-chlorophenyl)-6-(2,2,2-trifluoroethoxy)pyridin-3-yl)-5-methoxynicotinamide] | – | 16 | 33 | 6.14 |
| O=C(Nc1cnc(OC2CCC2)c(-c2ccc(Cl)cc2)c1)c1cnccn1 [Example 78, N-(5-(4-chlorophenyl)-6-cyclobutoxypyridin-3-yl)pyrazine-2-carboxamide] | >45 | 26 | 25 | – |
| O=C(Nc1cnc(OC2CCC2)c(-c2ccc(Cl)cc2)c1)c1cccnc1 [Example 79, N-(5-(4-chlorophenyl)-6-cyclobutoxypyridin-3-yl)nicotinamide] | >45 | 13 | 29 | – |
| Cc1cc(-c2cc(NC(=O)c3cnc4c(c3)OCCN4C)cnc2OCC(F)(F)F)ccc1Cl [Example 80, N-(5-(4-chloro-3-methylphenyl)-6-(2,2,2-trifluoroethoxy)pyridin-3-yl)-4-methyl-3,4-dihydro-2H-pyrido[3,2-b][1,4]oxazine-7-carboxamide] | >45 | 14 | 16 | – |
| CN1CCOc2cc(C(=O)Nc3cnc(OCC(F)(F)F)c(-c4ccc(Cl)c(F)c4)c3)cnc21 [Example 81, N-(5-(4-chloro-3-fluorophenyl)-6-(2,2,2-trifluoroethoxy)pyridin-3-yl)-4-methyl-3,4-dihydro-2H-pyrido[3,2-b][1,4]oxazine-7-carboxamide] | – | 5 | 21 | 5.59 |
| Cc1ocnc1C(=O)Nc1cnc(OC2CCC2)c(-c2ccc(Cl)cc2)c1 [Example 82, 5-Methyl-oxazole-4-carboxylic acid[5-(4-chloro-phenyl)-6-cyclobutoxy-pyridin-3-yl]-amide] | >45 | 37 | 29 | – |
